Reference: US20240366612A1, “COMPOUNDS AND METHODS FOR MODULATING NUCLEIC ACID SPLICING” (REMIX THERAPEUTICS INC., priority 2021, published 2024)
Counter-ions that a name gives are not always drawn.

Assays:
HTT mRNA = assay: Splicing RT-qPCR assay, HTT canonical (CJ) and alternative (AJ) junction mRNA; type: cell-based; conditions: Homo sapiens, A673 or K562 cells, 24 hours treatment; for IC50: decrease in CJ mRNA; for AC50: increase in AJ mRNA
Description: (§1) Compounds described herein were used to modulate RNA transcript abundance in cells. The expression of a target mRNA was measured by detecting the formation of an exon-exon junction in the canonical transcript (CJ). A compound mediated exon-inclusion event was detected by observing an increase in formation of a new junction with an alternative exon (AJ). Real-time qPCR assays were used to detect these splicing switches and interrogate the potency of various compounds towards different target genes. A high-throughput real time quantitative PCR (RT-qPCR) assay was developed to measure these two isoforms of the mRNA (CJ and AJ) for exemplary genes, such as HTT, SMN2, and MYB, together with a control housekeeping gene, GAPDH or GUSB or PPIA, used for normalization. Briefly, the A673 or K562 cell line was treated with various compounds described herein (e.g., compounds of Formula (I)). After treatment, the levels of the HTT, MYB, or SMN2 mRNA targets were determined from each sample of cell lysate by cDNA synthesis followed by qPCR.
(§2) • Cells-to-CT 1-step kit: ThermoFisher A25602, Cells-to-CT lysis reagent: ThermoFisher 4391851C, TaqMan™ Fast Virus 1-Step Master Mix: ThermoFisher 4444436 • GAPDH: VIC-PL, ThermoFisher 4326317E (Assay: Hs99999905_ml)—used for K562/suspension cell lines • GUSB: VIC-PL, ThermoFisher 4326320E (Assay: Hs99999908_ml)—used for K562/suspension cell lines • PPIA: VIC-PL, ThermoFisher 4326316E (Assay: Hs99999904_ml)—used for A673/adherent cell lines
(§3) The A673 cell line was cultured in DMEM with 10% FBS. Cells were diluted with full growth media and plated in a 96-well plate (15,000 cells in 100 ul media per well). The plate was incubated at 37° C. with 5% CO2 for 24 hours to allow cells to adhere. An 11-point 3-fold serial dilution of the compounds was made in DMSO then diluted in media in an intermediate plate. Compounds were transferred from the intermediate plate to the cell plate with the top dose at a final concentration of 10 uM in the well. Final DMSO concentration was kept at or below 0.25%. The cell plate was returned to the incubator at 37° C. with 5% CO2 for an additional 24 hours.
(§4) The K562 cell line was cultured in IMDM with 10% FBS. For K562, cells were diluted with full growth media and plated in either a 96-well plate (50,000 cells in 50 uL media per well) or a 384-well plate (8,000-40,000 cells in 45 uL media per well). An 11-point 3-fold serial dilution of the compounds were made in DMSO then diluted in media in an intermediate plate. Compound was transferred from the intermediate plate to the cell plate with the top dose at a final concentration of 10 uM in the well. Final DMSO concentration was kept at or below 0.25%. Final volume was 100 uL for 96-well plate and 50 uL for 384-well plate. The cell plate was then placed in an incubator at 37° C. with 5% CO2 for 24 hours.
(§5) The cells were then gently washed with 50 uL-100 uL cold PBS before proceeding to addition of lysis buffer. 30 uL-50 μL of room temperature lysis buffer with DNAse I (and optionally RNAsin) was added to each well. Cells were shaken/mixed thoroughly at room temperature for 5-10 minutes for lysis to take place and then 3 uL-5 μL of room temperature stop solution was added and wells were shaken/mixed again. After 2-5 minutes, the cell lysate plate was transferred to ice for RT-qPCR reaction setup. The lysates could also be frozen at −80° C. for later use.
(§6) In some cases, a direct lysis buffer was used. An appropriate volume of 3×lysis buffer (10 mM Tris, 150 mM NaCl, 1.5%-2.5% Igepal and 0.1-1 U/uL RNAsin, pH 7.4) was directly added to either K562 or A673 cells in media and mixed by pipetting 3 times. The plates were then incubated at room temperature with shaking/rocking for 20-50 minutes to allow for lysis to take place. After this time, the cell lysate plate was transferred to ice to set up for the RT-qPCR reactions. The lysates could also be frozen at −80° C. for later use. […]

MYB mRNA = assay: Splicing RT-qPCR assay, MYB canonical (CJ) and alternative (AJ) junction mRNA; type: cell-based; conditions: Homo sapiens, A673 or K562 cells, 24 hours treatment; for IC50: decrease in CJ mRNA; for AC50: increase in AJ mRNA
Description: as §1, §2, §3, §4, §5, §6

HTT CJ mRNA = assay: Gene panel canonical junction qPCR assay, HTT; type: cell-based; conditions: Homo sapiens, larger gene panel, read-out: HTT IC50 (decrease in CJ mRNA levels)
Description: as §1, §3, §4
(§7) The data analysis was performed by first determining the ΔCt vs the housekeeper gene. This ΔCt was then normalized against the DMSO control (ΔΔCt) and converted to RQ (relative quantification) using the 2^(−ΔΔCt) equation. The RQ were then converted to a percentage response by arbitrarily setting an assay window of 3.5 and 4.0 ΔCt for HTT-CJ and MYB-CJ respectively and an assay window of 9 and 3 ΔCt for HTT-AJ and MYB-AJ in 96 well format (50,000 K562 cells/well and 15,000 A673 cells per well) and an assay window of 3 and 4 ΔCt for HTT-CJ and MYB-CJ respectively and an assay window of 5 and 3 ΔCt for HTT-AJ and MYB-AJ respectively in 384 well format (8,000 K562 cells/well example). […] The percentage response was then fitted to the 4 parametric logistic equation to evaluate the concentration dependence of compound treatment. The increase in AJ mRNA is reported as AC50 (compound concentration having […] in AJ increase) while the decrease in CJ mRNA levels is reported as IC50 (compound concentration having 50% response in CJ decrease).
(§8) Additional studies were carried out for a larger panel of genes using the protocol provided above. The junction between flanking upstream and downstream exons was used to design canonical junction qPCR assays. At least one of the forward primer, reverse primer or the CY5-labeled 5′ nuclease probe (with 3′ quencher such as ZEN/Iowa Black FQ) was designed to overlap with the exon junction to capture the CJ mRNA transcript. […]

MYB CJ mRNA = assay: Gene panel canonical junction qPCR assay, MYB; type: cell-based; conditions: Homo sapiens, larger gene panel, read-out: MYB IC50 (decrease in CJ mRNA levels)
Description: as §1, §3, §4, §7, §8

SMN2 CJ mRNA = assay: Gene panel canonical junction qPCR assay, SMN2; type: cell-based; conditions: Homo sapiens, larger gene panel, read-out: SMN2 IC50 (decrease in CJ mRNA levels)
Description: as §1, §3, §4, §7, §8

[1] = Cell Titer Glo 2.0 cell viability assay; conditions: human, K562 cells
Description: Compounds described herein were screened for toxicity in K562 (human chronic myelogenous leukemia) cells using a Cell Titer Glo 2.0 assay.
• Promega CellTiter-Gbo® 2.0 Cell Viability Assay (cat #G9241) • Corning 384-well TC-treated microplates (cat #3570)
Cells were plated at 500 cells/well (K562 cells) in 45 μL of IMDM supplemented with 10% FBS in a 384-well opaque plate. Wells containing only medium were used as a blank control. Test compounds (e.g., compounds of Formula (I), (II), and (III)) were first serially diluted in DMSO then diluted 1:100 with IMDM+10% FBS. The final concentration of DMSO was 0.1% in each well. The cells were incubated for 72 hours at 37° C. and 5% CO2 before assaying with Cell Titer Glo 2.0 reagent.

IC50 (HTT mRNA)	IC50 (MYB mRNA)	IC50 (HTT CJ mRNA)	IC50 (MYB CJ mRNA)	IC50 (SMN2 CJ mRNA)	SMILES	AC50 (HTT mRNA)	AC50 (MYB mRNA)	GI50 at 72 h [1]
100 to 1000 nM	100 to 1000 nM	100 to 1000 nM	100 to 1000 nM	< 100 nM	Cn1cc2cc(-c3cc4ncn(C5CCNCC5)c(=O)c4s3)c(F)cc2n1 [Compound 258]	100 to 1000 nM	100 to 1000 nM	1000 to 10000 nM
100 to 1000 nM	100 to 1000 nM	100 to 1000 nM	100 to 1000 nM	100 to 1000 nM	Cc1cn2cc(-c3cc4ncn(C5CCNC5)c(=O)c4s3)cc(F)c2n1 (stereo not drawn) [Compound 270, 6-{8-fluoro-2-methylimidazo[1,2-a]pyridin-6-yl}-3-(pyrrolidin-3-yl)thieno[3,2-d]pyrimidin-4-one]	100 to 1000 nM	100 to 1000 nM	100 to 1000 nM
100 to 1000 nM	100 to 1000 nM	100 to 1000 nM	100 to 1000 nM	100 to 1000 nM	Cc1cn2nc(-c3cc4ccn(C5CCNCC5)c(=O)c4s3)cc(C)c2n1 [Compound 806, 2-(2,8-dimethylimidazo[1,2-b]pyridazin-6-yl)-6-(piperidin-4-yl)thieno[2,3-c]pyridin-7(6H)-one]	100 to 1000 nM	100 to 1000 nM	100 to 1000 nM
1000 to 10000 nM	1000 to 10000 nM	1000 to 10000 nM	1000 to 10000 nM	1000 to 10000 nM	Cc1cn2cc(-n3cnc4nc(N5CCN(C)CC5)sc4c3=O)cc(F)c2n1 [Compound 228, 6-(8-fluoro-2-methylimidazo[1,2-a]pyridin-6-yl)-2-(4-methylpiperazin-1-yl)thiazolo[4,5-d]pyrimidin-7(6H)-one]	1000 to 10000 nM	1000 to 10000 nM	1000 to 10000 nM
100 to 1000 nM	100 to 1000 nM	100 to 1000 nM	100 to 1000 nM	< 100 nM	Cc1cc(-c2cc3cnn(C4CCNCC4)c(=O)c3s2)cc2cn(C)nc12 [Compound 802, 2-(2,7-dimethyl-2H-indazol-5-yl)-6-(piperidin-4-yl)thieno[2,3-d]pyridazin-7(6H)-one]	100 to 1000 nM	100 to 1000 nM	100 to 1000 nM

SMILES	IC50 (HTT mRNA)	IC50 (MYB mRNA)	IC50 (HTT CJ mRNA)	IC50 (MYB CJ mRNA)	IC50 (SMN2 CJ mRNA)	AC50 (HTT mRNA)	AC50 (MYB mRNA)	GI50 at 72 h [1]
Cc1cn2nc(-c3cc(=O)n4cc(N(C)C5CC(C)(C)NC(C)(C)C5)sc4n3)cc(C)c2n1 [Compound 205, 7-(2,8-dimethylimidazo[1,2-b]pyridazin-6-yl)-2-(methyl(2,2,6,6-tetramethylpiperidin-4-yl)amino)-5H-thiazolo[3,2-a]pyrimidin-5-one]	1000 to 10000 nM	1000 to 10000 nM	1000 to 10000 nM	1000 to 10000 nM	1000 to 10000 nM	1000 to 10000 nM	1000 to 10000 nM	
Cc1cn2cc(-n3cnc4nc(N5CCN(C)CC5)sc4c3=O)cc(C(F)(F)F)c2n1 [Compound 230, 6-(2-methyl-8-(trifluoromethyl)imidazo[1,2-a]pyridin-6-yl)-2-(4-methylpiperazin-1-yl)thiazolo[4,5-d]pyrimidin-7(6H)-one]	> 10000 nM	100 to 1000 nM	> 10000 nM	> 10000 nM	> 10000 nM	> 10000 nM	100 to 1000 nM	> 10000 nM
Cc1cn2cc(-n3cnc4nc(N(C)C5CC(C)(C)NC(C)(C)C5)sc4c3=O)cc(F)c2n1 [Compound 227, 6-(8-fluoro-2-methylimidazo[1,2-a]pyridin-6-yl)-2-(methyl(2,2,6,6-tetramethylpiperidin-4-yl)amino)thiazolo[4,5-d]pyrimidin-7(6H)-one, formate]	> 10000 nM	> 10000 nM	> 10000 nM	> 10000 nM	> 10000 nM	> 10000 nM	> 10000 nM	
Cc1cn2cc(-c3nn4c(=O)cc(N(C)C5CC(C)(C)NC(C)(C)C5)nc4s3)cc(F)c2n1 [Compound 215, 2-(8-fluoro-2-methylimidazo[1,2-a]pyridin-6-yl)-7-(methyl(2,2,6,6-tetramethylpiperidin-4-yl)amino)-5H-[1,3,4]thiadiazolo[3,2-a]pyrimidin-5-one]	1000 to 10000 nM	1000 to 10000 nM	1000 to 10000 nM	1000 to 10000 nM	100 to 1000 nM	1000 to 10000 nM	1000 to 10000 nM	
